B1: ERRγ3: novel ERRγ isoform, nuclear receptor protein of 396 amino acids (SEQ ID NO: 2) lacking part of the DNA binding domain (protein, listed as Homo sapiens)
chain: MSNKDRHIDSSCSSFIKTEPSSPASLTDSVNHHSPGGSSDASGSYSSTMNGHQNGLDSPPLYPSAPILGGSGPVRKLYDDCSSTIVEDPQTKCEYMLNSMPKRLCLVCGDIASGYHYGVASCEACKAFFKRTIQGVRLDRVRGGRQKYKRRIDAENSPYLNPQLAQPAKKPYNKIVSHLLVAEPEKIYAMPDPTVPDSDIKALTTLCDLADRELVVIIGWAKHIPGFSTLSLADQMSLLQSAWMEILILGVVYRSLSFEDELVYADDYIMDEDQSKLAGLLDLNNAILQLVKKYKSMKLEKEEFVTLKAIALANSDSMHIEDVEAVQKLQDVLHEALQDYEAGQHMEDPRRAGKMLMTLPLLRQTSTKAVQHFYNIKLEGKVPMHKLFLEMLEAKV

What was measured:
ERRγ2 = conditions: stated as known property; cited from earlier work
[1] = test system: ERE (estrogen response element); assay: Reporter gene assay of ERRγ3 alone, ERE luciferase reporter in CV-1 cells; assay type: cell-based, African green monkey; conditions: ERRγ3 expression plasmid alone, FIG. 15
Protocol: In order to construct a reporter gene assay system for evaluation of the transcription-controlling activity of ERRγ3, a reporter plasmid into which ERE (estrogen response element) was inserted was prepared along with expression plasmids for ERRγ3 and ERRγ2, as follows: A reporter gene assay was performed by transfecting the reporter plasmid and expression plasmids into cultured cells by lipofection, followed by incubating the cells for a certain time, treating the cells with cell lysis solution, and measuring reporter activity with a luminometer using a Dual luciferase assay. […]
The transcription-controlling activity of ERRγ3 was evaluated using a reporter gene assay. […]
The reporter gene assay was performed using CV-1 cells (African green monkey kidney-derived cell line) as hosts. […] They were then exposed to 4-hydroxytamoxifen at different concentrations (0, 10^−10 to −10^−5 M) for 24 hours, whereupon luciferase activity within the cells was measured.
Transfection was performed as follows: CV-1 cells were suspended at 2×10^5 cells/2.5 ml in DMEM medium supplemented with 10% fetal bovine serum, 2000 U/l of penicillin G, and 100 mg/l streptomycin. […] 1 μg of each of the transcription factor expression plasmid, the luciferase reporter plasmid, and another luciferase reporter plasmid for normalizing the measured value (pRL-TK), were dissolved in Opti-MEM (Gibco BRL) to total of 150 μl. […]

Chain of ERRγ2 (P62508 whole entry): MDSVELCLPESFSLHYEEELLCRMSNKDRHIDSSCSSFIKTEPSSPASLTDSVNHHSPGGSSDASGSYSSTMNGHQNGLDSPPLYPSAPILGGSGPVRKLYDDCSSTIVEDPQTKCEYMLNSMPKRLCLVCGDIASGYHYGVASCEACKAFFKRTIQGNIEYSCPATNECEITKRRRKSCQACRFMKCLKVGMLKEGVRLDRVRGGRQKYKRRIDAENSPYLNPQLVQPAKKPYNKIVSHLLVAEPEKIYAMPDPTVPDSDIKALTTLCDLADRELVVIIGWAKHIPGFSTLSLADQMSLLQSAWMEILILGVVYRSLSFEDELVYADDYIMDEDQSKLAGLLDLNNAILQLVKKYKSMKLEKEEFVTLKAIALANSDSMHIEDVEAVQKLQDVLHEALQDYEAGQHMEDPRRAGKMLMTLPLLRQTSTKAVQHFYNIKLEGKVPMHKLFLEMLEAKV

Row | Molecule | binding to ERRγ2 (ERRγ2) | transcription-controlling activity of ERRγ3 by itself [1]
1 | 4-hydroxytamoxifen [reference compound] | capable of binding | 
2 | B1 |  | does not comprise the transcription-controlling activity

— patent US20060148030A1, “Nuclear receptor err y 3” (FUJISAWA PHARMACEUTICAL CO., LTD, priority 2002, published 2006)
